In ChEMBL document CHEMBL1127328, “Copper complexation by 3-hydroxypyridin-4-one iron chelators: structural and iron competition studies” (J Med Chem, 1994):

Experiments:
Type in all cases: ADME
[1] = Acid dissociation constant was determined
[2] = log K1 value of the compound
[3] = log K2 value of the compound
[4] = log K3 value of the compound

| pKa ([1]; read-out: pKa1) | pKa ([1]; read-out: pKa2) | Log K1 [2] | Log K2 [3] | Compound | Log K3 [4] |
| --- | --- | --- | --- | --- | --- |
| 2.92 | 8.91 | 9.48 | 7.48 | O=C(O)CCn1ccc(=O)c(O)c1 |  |
| 3.93 | 10.1 | 13.18 | 7.03 | CCc1c(O)c(=O)ccn1CC | 2.65 |
| 3.74 | 9.7 |  |  | CCc1c(O)c(=O)ccn1C |  |
| 3.35 | 8.8 | 9.35 | 7.58 | Cn1ccc(=O)c(O)c1 |  |
| 3.36 |  | 9.49 | 7.64 | Oc1ccncc1O |  |
| 3.79 | 9.79 |  |  | CCn1ccc(=O)c(O)c1C |  |

| Compound | pKa ([1]; read-out: pKa1) | pKa ([1]; read-out: pKa2) | Log K1 [2] | Log K2 [3] | Log K3 [4] |
| --- | --- | --- | --- | --- | --- |
| Cc1c(O)c(=O)ccn1C [DEFERIPRONE] | 3.84 | 9.86 | 11.48 | 10.22 | 5.64 |
